The conditions of data set [1]: cited from earlier work.
A short description of data set [2]: MTT: Cell Damaging and Protecting Effect Test. Particulars: rabbit, gastric mucosal cells, final concentration 10^-4 M, 4 hours; smaller value is better; read-out: MTT: cell damaging rate. The class given is cell-based, rabbit (male Japanese White). The source says:
MTT: Cell Damaging and Protecting Effect Test
It is confirmed that there is no toxicity in cell level. Those having a toxicity in cell level are inappropriate as an anti-ulcer drug.
A male Japanese White rabbit (2.5 to 3 kg) was anesthetized to death by Nembutal™ and, immediately thereafter, its stomach was removed. The greater curvature of the stomach was incised so as to remove the stomach contents therefrom. After the mucosal surface was washed with HBSS (Hanks' Balanced Salt Solution), the stomach in ice-cooled HBSS was transferred to a laboratory. Then, after the pyloric antrum was removed, the gastric corpus mucosa was separated by a spatula and then minced into 2 to 3 mm^3 pieces in BME (Basal Medium Eagle). Thereafter, these pieces were shaken at 120 to 130 cycles/minute for 15 minutes at 37° C. in BME 60ml containig 280 U/ml of dispase and 30 to 50 U/ml of collagenase. Here, the concentration of collagenase was appropriately changed for each lot in view of the state of cells. The pieces were washed twice with EBSS (Earle's Balanced Salt Solution) containing 1 mM of EDTA and then shaken in MEM (Minimum Essential Medium) containing 1 mM of EDTA at 37° C. for 5 minutes. Subsequently, they were shaken in the dispase and collagenase having the same concentrations as those mentioned above for 15 minutes so as to remove the supernatant and then further shaken at 37° C. for 50 to 60 minutes at 120 to 130 cycles/minute. Then, after being washed twice with HBSS, Ham F12 containing 2% of Ultrocer G™ was used to attain the concentration of 1×10^6 cells/ml. Thus formed suspension was dispensed in each well of a 96-well plate by 200 μl. The plate was incubated in the atmosphere composed of 5% CO2 and 95% air at 37° C. for three days so as to attain a confluent state and then subjected to MTT assay.
The sample compound was dissolved in DMSO so as to attain a concentration of 10^-2 M and then diluted with HBSS containing 2% of Ultrocer G™ so as to attain a final concentration of 10^-4 M. To each group, which 8 wells were used for, 10 μl of MTT reagent were added immediately after 100 μl of the medium in each well were exchanged for same volume of the resulting solution of the sample compound. After being incubated in an atmosphere composed of 5% CO2 and 95% air at 37° C. for 4 hours, thus formed solution was centrifuged and then its supernatant was discarded. Subsequently, 100 μl of 100% ethanol were added to the residue so as to dissolve MTT formazan. Then, the absorbance (OD: 570 to 630) was measured by a microplate reader. This method utilizes a phenomenon in which MTT is changed to MTT formazan only by mitochondria of living cells so as to change color.
The cell damaging or cell protecting effect of the sample compound at the final concentration of 10^-4 M was expressed as cell damaging rate (%) as follows:
cell damaging rate (%)=[1-(absorbance in sample group/absorbance in control group)]×100
Accordingly, the smaller value is better in the cell damaging rate.

Data set [3] deals with isolated gastric fundic gland. The experiment in a line: CAP: Acid Secretion Inhibition Test In Vitro ([14C]-aminopyrine uptake). It counts as cell-based, rabbit (male Japanese White). Particulars: Oryctolagus cuniculus, final concentration 10^-5 M, histamine 10^-5 M, rabbit gastric fundic gland; read-out: CAP: acid secretion inhibitory rate. The protocol:
CAP: Acid Secretion Inhibition Test In Vitro
The acid secretion inhibitory activity in a cell level is studied. It can also be used for studying the mechanism of the effect. […]
ii-a) Preparation of isolated gastric fundus gland suspension
First, an isolated gastric fundic gland sample was prepared. Namely, a male Japanese White rabbit (2.5 to 3 kg) was anesthetized to death with Nembutal™ and then the abdomen was incised. Immediately thereafter, the stomach was removed and, after its pyloric and cardiac antrum were severed, incised along its greater curvature into two sheets. The gastric contents adhering to the mucosal surface was washed out with ice-cooled PBS (-) and then carefully washed therein. The gastric wall was spread on a cork board with its mucosal surface facing up and the feed and mucus thereon were completely removed with sterile gauze. The mucosa was separated therefrom by a spatula and then collected in ice-cooled PBS (-). After being washed twice with PBS (-), the mucosa was minced into 2-3mm^3 pieces by scissors. These pieces were further washed twice with a nutrient solution. The nutrient solution comprises 132.4 mM of NaCl, 5.4 mM of KCl, 5 mM of Na2 HPO4 ·12H2 O, 1 mM of NaH2 PO4 ·2H2 O, 1.2 mM of MgSO4, 1 mM of CaCl2, 25 mM of HEPES, 2mg/ml of glucose, and 1 mg/ml of BSA. Into 70 ml of the nutrient solution containing 1 mg/ml of collagenase, minced mucosal pieces were dispersed and intensely stirred in a conical flask with a stirrer at 37° C. for 40 to 60 minutes. During this period, 100% O2 was sprayed on the nutrient solution surface and the pH was appropriately measured such that it was immediately adjusted to pH 7.4, when the value was therebelow, with a base. The nutrient solution was added to the reaction solution so as to attain the total amount of about 200 ml. After being filtered through a mesh, the suspension was divisionally introduced into 50 ml centrifuge tubes and left for 15 minutes such that gastric fundic gland was deposited. The supernatant was repeatedly removed by an aspirator, dispersed in the nutrient solution, and then left such that the gastric fundic gland was washed three times. At this time, without using a pipette, the suspension was alternately introduced into two centrifuge tubes so as to effect dispersion. The number of cells was counted under microscope and adjusted to 1.6×10^6 cells/ml. […]
ii-b) [^14 C]-aminopyrine uptake test
Then, [^14 C]-aminopyrine uptake test was performed. After an Eppendorf tube was weighed, 10 μl (final concentration: 10^-5 M) of histamine dissolved in the above-mentioned nutrient solution, 10 μl (final concentration: 10^-5 M) of the test compound dissolved in DMSO, and 10 μl (final concentration: 0.05 μCi/ml) of [^14 C]-aminopyrine diluted with the nutrient solution were introduced therein and then 970 μl of the isolated gastric fundic gland suspension prepared above were added thereto. Subsequently, this mixture was shaken at 37° C. for 40 minutes at 125 cycles/minute. After being centrifuged for 30 minutes 200 μl of its supernatant was collected into a mini-vial, while the rest was removed by an aspirator. The gland pellet was completely dried as the tube with its lid being opened was kept for one night in a drying oven at 80° C. and then the lid was closed and the weight was determined at room temperature. Then 100 μl of 1N KOH were added thereto and the tube with its lid being closed was treated at 60° C. for 1 to 2 hours so as to dissolve the pellet. Then, the contents thereof were transferred to a mini-vial. Into the mini-vial containing the supernatant or gland pellet, 4 ml of Atomlite™ were added and then the radioactivity was measured by a liquid scintillation counter. Here, after the radioactivity of the gland pellet was corrected by using a sample in which 20 mM of NaSCN were added so as to cancel the hydrogen ion concentration gradient, the integration ratio of aminopyrine specifically trapped by the gland pellet was calculated. […]

For a further data set, the system named is stress ulcer formation. The experiment in a line: WIS: Restraint and Water Immersion Stress-Induced Ulcer Inhibition Test. It counts as in vivo, rat (male Crj:SD or Slc:SD). Particulars: rat; for WIS: ulcer formation inhibitory rate: 100 mg/kg oral, 7 hours stress. The protocol:
WIS: Restraint and Water Immersion Stress-Induced Ulcer Inhibition Test
The degree of inhibition of the stress ulcer formation is tested.
Male Crj:SDor Slc:SD rats (6 to 7-week-old) were fasted overnight, but allowed free access to water. Each group has 5 to 8 of these rats. The sample compound was dissolved or suspended in an aqueous solution of 0.3% sodium carboxymethylcellulose or 0.05% Tween 80 and then was orally administered (100 mg/10 ml/kg). To a control group, the vehicle was administered. 10 minuts later, the rats were placed in a stress cage and immersed to the level of xipfoid process in a water bath (21° C.) for 7 hours. At the end of the stress, the rats were sacrificed by inhalation of ether or carbon dioxide. Then, the stomach of each was removed, inflated by injecting 10 ml of 5% formalin neutral buffer solution, and immersed in 1% formalin neutral buffer solution for 30 minutes or more to be fixed. The stomach was incised along the greater curvature and then the length of each erosion in the glandular portion was determined under dissecting microscope. The sum of the length of erosions per stomach was defined as ulcer index (UI).
The effect obtained when 100 mg/kg of the sample compound had been administered was expressed as ulcer formation inhibitory rate (%) as follows:
ulcer formation inhibitory rate (%)=[1-(UI in sample group/UI in control group)]×100

In the case of `Cc1c(N(C)C)c(=O)n(-c2ccccc2)n1C` [aminopyrine], the pKa (as a rule, the negative logarithm of the acid dissociation constant) in data set [1] is given as 5.0.
For `CC(C)Cc1cc(C(=O)N2CCN(CC(C)C)CC2)ccc1OCc1ccc(C#N)cc1.Cl` [Example 11, 1-[4-(4-cyanobenzyloxy)-3-isobutylbenzoyl]-4-isobutylpiperazine hydrochloride], in data set [2], the cytotoxicity at 4 h, 100 µM was -77%. The inhibition at 10 µM in data set [3] was 100%. For the same compound, the “WIS: ulcer formation inhibitory rate” value with stress ulcer formation is 94%.
Turning to `CC(C)Cc1cc(C(=O)N2CCN(CCOC(=O)c3ccc4c(c3)OCO4)CC2)ccc1OCc1ccc(F)cc1` [Example 10, 1-[4-(4-fluorobenzyloxy)-3-isobutylbenzoyl]-4-[2-(piperonyloyloxy)ethyl]piperazine], the cytotoxicity at 4 h, 100 µM in data set [2] was found to be 34%. Moreover, in data set [3], the inhibition at 10 µM was 100%. In addition, the “WIS: ulcer formation inhibitory rate” value with stress ulcer formation was 54%. Besides, the “anti-ulcer effect (in words)” value in the data set on stress ulcer formation (in vivo) is on record as “sufficient effects”.
As to `COc1cc(C(=O)N2CCN(CC(C)C)CC2)ccc1OCc1ccc(F)cc1.Cl` [Example 7, 1-[4-(4-fluorobenzyloxy)-3-methoxybenzoyl]-4-isobutylpiperazine hydrochloride], the cytotoxicity at 4 h, 100 µM in data set [2] is -72%. Further, the inhibition at 10 µM in data set [3] came out at 100%. The “WIS: ulcer formation inhibitory rate” value in the data set on stress ulcer formation is recorded as 48%.
For `CC(C)CN1CCN(C(=O)c2ccc(OCc3ccc(F)cc3)c(N)c2)CC1.Cl.Cl` [Example 1, 1-[3-amino-4-(4-fluorobenzyloxy)benzoyl]-4-isobutylpiperazine dihydrochloride], the “WIS: ulcer formation inhibitory rate” value in the data set on stress ulcer formation is on record as 88%.

The values are drawn from patent publication US5756505A, “N-acylpiperazine derivative, antibacterial drug and anti-ulcer drug” (Shiseido Co., Ltd., priority 1995, dated 1998).
